Earlier results in PMC4022290 (Nuclear medicine and biology, 2013).

Tested on: tumors

D-Phe-Gln-Trp-Ala-Val-Gly-His-Sta-Leu-NH2 [RM2]
uptake and retention in tumors vs agonist GRPr-targeting ligands: improved uptake and retention in tumors as compared to agonist GRPr-targeting ligands
